Laboratory results: patent US20250296932A1, “PHARMACEUTICAL COMPOSITIONS COMPRISING HIV INTEGRASE INHIBITORS” (priority 2024, published 2025)

Experiments:
[1] = test system: HIV-1 (HXB2) site directed mutant N155H; test: HIV-1 replication in MT-4 cells, INSTI resistant site-directed mutant N155H; type: cell-based; settings: 5 days, Cell Titer Glo, at least 3 independent experiments in quadruplicate
Procedure: (§1) The compound of Formula I, along with control compounds bictegravir and raltegravir, were tested in a high-throughput 384-well assay format for ability to inhibit the replication of HIV-1 (HXB2) in MT-4 cells. Compounds were serially diluted (1:3) in 10 ul DMSO on 384-well plates and then diluted 187-fold into complete RPMI media using the uFLow and Biomek FX. 0.4 uL of compound was added in quadruplicate to 384-well assay plates. Each plate contained 8 test compounds, plus DMSO negative and 5 uM AZT positive controls. 1 mL aliquots of 2M MT-4 cells were pre-infected for 1 hr, @ 37° C. with 25 uL (MT-4) of either RPMI (mock-infected) or a fresh 1:250 dilution of an HIV-1 (HXB2 WT or site directed mutants containing either single INSTI Mutations E92Q, Y143R, Q148R, N155H, or R263K or double mutations E92Q/N155H, E138K/Q148K, or G140S/Q148R) concentrated ABI stock. Infected and uninfected cells were diluted in RPMI and 35 uL containing 2000 MT-4 cells was added to each well of assay plates, using the uFLow and subsequently incubated for 5 days at 37° C. in an incubator set at 5% CO2 and 90% humidity. After 5 days, 22 uL Cell Titer Glo (Promega, Madison, WI, Cat #G7573) was added to the assay plates with a Biotek uFlow Workstation. Plates were subsequently placed on a Perkin Elmer Envision Plate Reader for 5 minutes before the luminescence signal was read. EC50 values were defined as the compound concentration that causes a 50 decrease in luminescence signal, a measure of HIV-1 replication, and were calculated in Accord (online tool) using a one-site dose-response model to generate sigmoidal curve fits. Fold shifts for mutant viruses were obtained by calculating EC50 values relative to the HXB2 WT control.
(§2) The mean fold change values (relative to WT) are from at least 3 independent experiments assayed in quadruplicate.

[2] = test system: HIV-1 (HXB2) site directed mutant Q148R; test: HIV-1 replication in MT-4 cells, INSTI resistant site-directed mutant Q148R; type: cell-based; settings: 5 days, Cell Titer Glo, at least 3 independent experiments in quadruplicate
Procedure: as §1, §2

[3] = test system: HIV-1 (HXB2) site directed mutant E92Q; test: HIV-1 replication in MT-4 cells, INSTI resistant site-directed mutant E92Q; type: cell-based; settings: 5 days, Cell Titer Glo, at least 3 independent experiments in quadruplicate
Procedure: as §1, §2

[4] = test system: HIV-1 (HXB2) site directed mutant R263K; test: HIV-1 replication in MT-4 cells, INSTI resistant site-directed mutant R263K; type: cell-based; settings: 5 days, Cell Titer Glo, at least 3 independent experiments in quadruplicate
Procedure: as §1, §2

[5] = test system: HIV-1 (HXB2) site directed mutant G140S/Q148R; test: HIV-1 replication in MT-4 cells, INSTI resistant site-directed mutant G140S/Q148R; type: cell-based; settings: 5 days, Cell Titer Glo, at least 3 independent experiments in quadruplicate
Procedure: as §1, §2

[6] = test system: HIV-1 (HXB2) site directed mutant E92Q/N155H; test: HIV-1 replication in MT-4 cells, INSTI resistant site-directed mutant E92Q/N155H; type: cell-based; settings: 5 days, Cell Titer Glo, at least 3 independent experiments in quadruplicate
Procedure: as §1, §2

[7] = test system: HIV-1 (HXB2) site directed mutant Y143R; test: HIV-1 replication in MT-4 cells, INSTI resistant site-directed mutant Y143R; type: cell-based; settings: 5 days, Cell Titer Glo, at least 3 independent experiments in quadruplicate
Procedure: as §1, §2

[8] = test system: HIV-1 (HXB2) site directed mutant E138K/Q148K; test: HIV-1 replication in MT-4 cells, INSTI resistant site-directed mutant E138K/Q148K; type: cell-based; settings: 5 days, Cell Titer Glo, at least 3 independent experiments in quadruplicate
Procedure: as §1, §2

[9] = test system: NNRTI-resistant (NNRTI-r) HIV-1 mutants (HXB2-based viruses encoding RT mutations K103N, Y181C, Y188L, L100I+K103N, G190A); test: Antiviral potency against panel of HIV-1 mutants: NNRTI-resistant; type: cell-based; settings: relative to WT; at least three experiments run in triplicate; control: NNRTI (EFV)
Procedure: (§3) The human T-lymphoblastoid MT-2 and SupTI cell lines were obtained from the NIH AIDS Reagent Program (Germantown, MD) and maintained in RPMI-1640 medium supplemented with 10% heat-inactivated fetal bovine serum, 100 units/mL penicillin, and 10 μg/mL streptomycin (complete RPMI media). Cells were passaged twice per week and kept at densities less than 800,000 cells per mL. Adherent HEK293T cells were obtained from the Gladstone Institute for Virology and Immunology (San Francisco, CA) and maintained at densities below 80% confluency in Dulbecco's Modified Eagle Medium (DMEM) (Gibco) supplemented with 10% heat-inactivated FBS, 100 units/mL penicillin, and 10 μg/mL streptomycin (complete DMEM media). Unless otherwise noted, HIV-1 recombinant strains carrying mutations were prepared by transfecting infectious proviral pLAI-based or pHXB2-based cDNA clones into MT-2 cells and harvesting the cell supernatants. The NNRTI-resistant HXB2-based viruses encoding reverse transcriptase (RT) mutations (K103N, Y181C, Y188L, L100I+K103N, and G190A) were constructed by site-directed mutagenesis. The NRTI-resistant LAI-based viruses encoding RT mutations K65R, M184V, and M41L+T215Y were constructed by site-directed mutagenesis. […].
(§4) The EC50 fold change range is the mean±standard deviation from at least three experiments run in triplicate. […]

[10] = test system: NRTI-resistant (NRTI-r) HIV-1 mutants (LAI-based viruses encoding RT mutations K65R, M184V, M41L+T215Y); test: Antiviral potency against panel of HIV-1 mutants: NRTI-resistant; type: cell-based; settings: relative to WT; at least three experiments run in triplicate; controls: NRTIs (TAF, FTC)
Procedure: as §3, §4

[11] = test system: PI-resistant (PI-r) HIV-1 mutants (HXB2-based viruses encoding protease mutations 150V, 184V+L90M, G48V+V82A+L90M, G48V+V82S); test: Antiviral potency against panel of HIV-1 mutants: PI-resistant; type: cell-based; settings: relative to WT; at least three experiments run in triplicate; controls: PIs (DRV, ATV)
Procedure: as §3, §4

[12] = test system: CAI-resistant (CAI-r) HIV-1 reporter viruses encoding capsid mutations (L56I, N57H, M66I, K70N, Q67H+N74D, Q67H+T107N); test: Antiviral potency against panel of HIV-1 mutants: CAI-resistant single cycle reporter viruses; type: cell-based; settings: relative to WT; at least three experiments run in triplicate; control: CAI (LEN)
Procedure: as §3, §4

[13] = Hygroscopicity by dynamic vapor sorption (DVS) of crystalline forms, salts and co-crystals; type: physicochemical
Procedure: Hygroscopicity was studied using dynamic vapor sorption (DVS, TA Q5000 SA, TA Instruments, New Castle, DE or DVS, DVS Intrinsic, Surface Measurement Systems, London, UK). […] The water sorption and desorption were studied as a function of relative humidity (RH) at 25° C. […] Data analysis was performed using Universal Analysis 2000 Version 4.7A (TA Instruments, New Castle, DE) for TA DVS runs and Microsoft Excel for SMS DVS runs.

SMILES | Mean EC50 Fold Change (relative to WT), N155H [1] | Mean EC50 Fold Change (relative to WT), Q148R [2] | Mean EC50 Fold Change (relative to WT), E92Q [3] | Mean EC50 Fold Change (relative to WT), R263K [4] | Mean EC50 Fold Change (relative to WT), G140S/Q148R [5] | Mean EC50 Fold Change (relative to WT), E92Q/N155H [6] | Mean EC50 Fold Change (relative to WT), Y143R [7] | Mean EC50 Fold Change (relative to WT), E138K/Q148K [8] | EC50 Fold Change, Range, NNRTI-r [9] | EC50 Fold Change, Range, NRTI-r [10] | EC50 Fold Change, Range, PI-r [11] | EC50 Fold Change, Range, CAI-r [12] | form of the material post DVS experiment ([13]; after DVS sorption/desorption at 25° C.) | water absorbed (DVS) ([13]; up to 95% RH at 25° C.)
O=C(NCc1c(F)cc(F)cc1F)c1cn2c(c(O)c1=O)C(=O)N1[C@H]3CC[C@H](C3)O[C@@H]1C2 [Bictegravir] | 1.3 fold | 0.7 fold | 1.6 fold | 1.9 fold | 2.1 fold | 1.2 fold | 1.8 fold | 4.4 fold | – | – | – | – | – | –
C[C@@H]1C=C[C@H](C)N2CN1n1cc(C(=O)NCc3c(F)cc(F)cc3F)c(=O)c(O)c1C2=O [Compound of Formula I, (1S,2R,5S)-8-hydroxy-2,5-dimethyl-7,9-dioxo-N-(2,4,6-trifluorobenzyl)-2,5,7,9-tetrahydro-1,6-methanopyrido[1,2-b][1,2,5]triazonine-10-carboxamide] | 1.9 fold | 1.0 fold | 2.7 fold | 2.0 fold | 5.5 fold | 1.8 fold | 2.5 fold | 9.5 fold | 0.7-2.4 fold | 0.4-0.8 fold | 0.4-1.3 fold | 0.8-1.2 fold | – | –
C[C@@H]1C=C[C@H](C)N2CN1n1cc(C(=O)NCc3c(F)cc(F)cc3F)c(=O)c(O)c1C2=O [Compound of Formula I, Form I, (1S,2R,5S)-8-hydroxy-2,5-dimethyl-7,9-dioxo-N-(2,4,6-trifluorobenzyl)-2,5,7,9-tetrahydro-1,6-methanopyrido[1,2-b][1,2,5]triazonine-10-carboxamide] | – | – | – | – | – | – | – | – | – | – | – | – | not have changed form | about 0.15%
Cc1nnc(C(=O)NC(C)(C)c2nc(C(=O)NCc3ccc(F)cc3)c(O)c(=O)n2C)o1 [Raltegravir] | 6.1 fold | 16 fold | 4.8 fold | 1.1 fold | 108 fold | 58 fold | 18 fold | 6.5 fold | – | – | – | – | – | –
